Measured values reported in US11224223B2, “Feeding deterrence of pests such as Hemiptera, Lepidoptera and Coleoptera” (BEDOUKIAN RESEARCH, INC., priority 2012, dated 2022).

Columns and labels:
Type in all cases: in vivo
Popillia japonica = test: Japanese beetle feeding damage on basil; settings: 3% compound; basil leaf disks; adult beetle; 24 h
Description: (§1) Japanese Beetle Feeding Damage on Basil For choice feeding assays, 3% alcohol solutions of the tested compounds are prepared. Disks (4.0 cm in diameter) are cut from basil leaves and are dipped in the test solutions or alcohol alone as a control. After the complete evaporation of the solvent, the disks are offered to 1 adult beetle. All dishes are placed in an incubator. Four replicates are used for each chemical. After 24 h, the remaining uneaten area of each basil leaf disk is measured using a scanner and software. The selective antifeeding rate (%) formula is [(C−T)/(C+T)]×100, and the non-selective antifeeding rate (%) formula is [(C−T)/C)]×100, where C and T are the areas consumed by the control and treated leaf disks, respectively.

Tineola spp. = test: Clothes moth feeding damage on silk fabric, choice test; settings: 3% compound; silk disks; late instar larvae; 24 hours; control 50/50
Description: For feeding assays, 3% alcohol solutions of the tested compounds are prepared. Disks (2.0 cm in diameter) of undyed silk fabric are dipped in the test solutions or alcohol alone as a control. After the complete evaporation of the solvent, the disks are presented in a choice test to 10 late instar Tineola spp. larvae. All dishes are placed in an incubator in the dark. Four replicates are used for each chemical. After 24 hours, the number of individuals choosing to feed on each disk are counted.

granary weevils = test: Granary weevil test on treated wheat kernels; settings: 5% in isopropyl alcohol, 3 week period
Description: Ten replicates of 30 kernels of wheat were immersed into the test compound and allowed to dry for 24 hours. The grains were then transferred to a test container, and 10 granary weevils were released. Test containers were secured and left for a 3 week period. At the end of this time, the wheat grains were examined for developing larvae and damage by larvae. […] Ten additional replicates treated with isopropyl alcohol were prepared to serve as controls.

[1] = test system: Euschistus heros-Neotropical Brown Stink Bugs; test: Stink bug feeding damage on soybean pods; settings: 3% compound, soybean plants at R6 stage, 48 hours
Description: To compare the feeding/resting preference of stink bug adults for different plant parts, 10 pots with soybean plants at the R6 (pod-filling) stage of development are used. 5 pots of soybeans are sprayed with 3% of treatment in a 2% Triton X:water solution and 5 pots of soybean are treated with 2% Triton X:water solution as controls. Thirty stink bugs are placed individually in each cage and allowed to feed for 48 hours. Insects are removed and plant parts are collected for visual analysis of damage. Feeding damage on the pods is counted for both treatments. The selective antifeeding rate (%) formula is [(C−T)/(C+T)]×100, and the non-selective antifeeding rate (%) formula is [(C−T)/C)]×100, where C and T are the numbers of feeding damages on the control and treated plant pods, respectively.

Plodia interpunctella = test: Feeding repellent assay for Indian meal moth larva on treated rice; settings: 10% compound in a 5% Ethanol:95% water solution, third instar larvae, 1 week
Description: (§2) Feeding Repellent Assay for Indian Meal Moth Larva One gram of rice is weighed and treated with 2% by weight of each test chemical or ethanol as a control for each treatment and replicate. The grains are allowed to dry and then weighed again. Treated or control rice grains are placed in a petri dish. Third instar larvae are starved for 8 h and gently introduced into the center of each compartment. 20 larva are screened per treatment, and each experiment is repeated three times. The weight of rice grains is measured again after 1 week. The selective antifeeding rate (%) formula is [(C−T)/(C+T)]×100, and the non-selective antifeeding rate (%) formula is [(C−T)/C)]×100, where C and T are the areas consumed by the control and treated leaf disks, respectively.

Aphis gossypii = test: Melon aphid repellency on leaf choice assays; settings: 3% compound in a Triton X:Water solution; n=100; control 50/50
Description: Melon Aphid Repellency on Leaf Choice Assays Aphis gossypii are maintained on squash plants. Individual aphids (n=100) are given the choice between leaves with and without repellent treatments. A separate group of aphids are given a choice between untreated vs. untreated leaves as a control. The number of aphids choosing each leaf is counted both choice tests. The number of aphids choosing each treatment is compared to the control to determine the repellent effect.

psyllids = test: Psyllid repellency on potato choice assays; settings: 3% compound; potato plants; 100 psyllids per cage; control 50/50
Description: Psyllid Repellency on Potato Choice Assays
(§3) Potato plants are sprayed with either a 3% solution of repellent chemical in a 5%:95% ETOH:Water or only 5%:95% ETOH:Water as a control. Two plants are placed in a screen cage, either a treatment vs control tree or a control vs control tree, 100 psyllids are released into each cage. The number of psyllids choosing each leaf is counted for both choice tests. The number of psyllids choosing each treatment is compared to the control to determine if there is a repellent effect.

[2] = test system: Leptinotarsa decemlineata-Colorado Potatoe Beetles; test: Choice feeding assay on potato leaf disks; settings: 3% compound, larvae, 24 h
Description: as §1, with “For” for “Japanese Beetle Feeding Damage on Basil For”, “potato” for “basil”, “10 larvae. Control and treated disks are placed at alternate corners in Petri dishes (150 by 20 mm) lined with moistened filter paper (choice test).” for “1 adult beetle.”, “replicates and 40 larva” for “replicates”, “chemical. In each replicate, the insects are allowed to feed ad libitum for 24 h at 24 C under a 16:8 (L:D) photoperiod.” for “chemical.”

Sitostroga cerealella = test: Feeding repellent assay for Angoumois larva on treated rice; settings: 10% compound in a 5% Ethanol:95% water solution, third instar larvae, 1 week
Description: Feeding Repellent Assay for Angoumois Larva
as §2, with “One” for “Feeding Repellent Assay for Indian Meal Moth Larva One”

saw tooth grain beetles = test: Repellency of test compounds on grain beetles, treated corn kernels; settings: 5% in isopropyl alcohol, 3 week period
Description: Ten replicates of 30 kernels of corn are immersed into the test compound and allowed to dry for 24 hours. The kernels are then transferred to a test container, and 10 saw tooth grain beetles are released. Test containers are secured and left for a 3 week period. At the end of this time, the […] grains are examined for feeding damage. […] Ten additional replicates treated with isopropyl alcohol are prepared to serve as controls.

Dermestid spp. = test: Dermestid beetle feeding damage on silk fabric; settings: 3% compound; undyed silk disks; late instar larvae; 1 week
Description: Dermestid Beetle Feeding Damage on Silk Fabric
For feeding assays, 3% alcohol solutions of the tested compounds are prepared. Disks (4.0 cm in diameter) of undyed silk fabric are dipped in the test solutions or alcohol alone as a control. After the complete evaporation of the solvent, the disks are offered to 10 late instar larvae. All dishes are placed in an incubator. Four replicates are used for each chemical. After 1 week, the remaining uneaten area of each silk disk is measured using a scanner and software. The selective antifeeding rate (%) formula is [(C−T)/(C+T)]×100, and the non-selective antifeeding rate (%) formula is [(C−T)/C)]×100, where C and T are the areas consumed by the control and treated silk disks, respectively.

sharpshooters = test: Leafhopper repellency on citrus choice assays; settings: 3% compound; citrus seedlings; 100 sharpshooters per cage; control 50/50
Description: as §3, with “Leafhopper Repellency on Citrus Choice Assays Citrus seedlings” for “Potato plants”, “seedlings” for “plants”, “tree.” for “tree,”, “sharpshooters” for “psyllids”

[3] = test system: brown marmorated stink bugs (BMSB); test: Repellency as feeding deterrence in brown marmorated stink bugs, treated filter paper with green bean; settings: compound at 3.5% in a 57% Ethanol:43% water solution; control 38%
Description: A test was designed to measure the repellency as feeding deterrence in brown marmorated stink bugs (BMSB). Five replicates of 5 BMSBs were introduced into test arenas, containing one 60 mm×15 mm Petri dish with treated filter papers in which a food source (green bean) was attached, at the start of the test. The small Petri dishes containing the treated filter paper and food source were covered with a fitted Petri dish lid in between observation times, and were removed 5 minutes before each observation time to prevent stink bugs from feeding until sated. The distribution of the BMSBs was observed and documented hourly for 5 hours.

Codling Moth larvae = test: Repellency as feeding deterrence and mortality in Codling Moth larvae on treated media
Description: Another test was designed to measure the repellency as feeding deterrence in Codling Moth larvae. The treatment was applied to the surface of a proprietary laboratory media in a tray with wells for each compound. The media was allowed to dry for 30-60 minutes so that larvae were not exposed to it as a liquid. One first instar codling moth larva was then placed on the treated media. The cover film was placed on the tray to prevent escapes. Ten additional replicates treated with a 57% ethanol solution were prepared to serve as controls. […] After the 24 hour reading, the larvae were extracted from the media to record any mortality.
Mortality observations were also made for the above protocol. The control was the 57% ethanol:43% water solution.

SMILES | % Repellency (Popillia japonica) [%] | Individuals choosing to feed on each disk: Treated (Tineola spp.) | Individuals choosing to feed on each disk: Untreated (Tineola spp.) | Increased Repellency vs. Control Repellency (granary weevils) [%] | % Antifeedent Activity [1] [%] | % Antifeedent Activity (Plodia interpunctella) [%] | Number of Aphids Choosing each Treatment: Treated (Aphis gossypii) | Number of Aphids Choosing each Treatment: Untreated (Aphis gossypii) | Number of Psyllids Choosing each Treatment: Treated (psyllids) | Number of Psyllids Choosing each Treatment: Untreated (psyllids) | % Repellency [2] [%] | % Antifeedent Activity (Sitostroga cerealella) [%] | Increased Repellency vs. Control Repellency (saw tooth grain beetles) [%] | % Repellency (Dermestid spp.) [%] | Number of Psyllids Choosing each Treatment: Treated (sharpshooters) | Number of Psyllids Choosing each Treatment: Untreated (sharpshooters) | Repellency averaged over 5 hours [3] [%] | Increased Mortality over Control Mortality (granary weevils) [%] | Repellency at 24 hours (Codling Moth larvae; compound at 3.5% in a 57% Ethanol:43% water solution, first instar larva, control 8%) [%] | Increased Mortality over Control Mortality at 24 hours (Codling Moth larvae; in vivo) [%]
CCCCCCCCCC1CCC(=O)O1 (centres unmarked) [Gamma Tridecalactone] | 40 | 10 | 90 | 40 | 80 | 70 | 20 | 80 | 20 | 80 | 40 | 70 | 40 | 40 | 20 | 80 | – | – | – | –
CCCCCC1C(=O)CCC1CC(=O)OC (centres unmarked) [Methyl Dihydrojasmonate] | 15 | 20 | 80 | – | 90 | 60 | 30 | 70 | 30 | 70 | 15 | 60 | – | 15 | 30 | 70 | 90 | – | – | –
CCCCCCCC1CCCC(=O)O1 (centres unmarked) [Delta-dodecalactone] | 40 | 10 | 90 | – | 80 | 70 | 20 | 80 | 20 | 80 | 40 | 70 | – | 40 | 20 | 80 | – | – | – | –
CCCC1CC(=O)C=C(C)C1 (centres unmarked) [3-Methyl-5-Propyl-2-Cyclohexenone] | – | – | – | 66 | – | – | – | – | – | – | – | – | 60 | – | – | – | – | 57 | 21 | 1
CC1=CC(O)CC(CC(C)C)C1 (centres unmarked) [3-Methyl-5-Isobutyl-2-Cyclohexenol] | – | – | – | 86 | – | – | – | – | – | – | – | – | 85 | – | – | – | – | 93 | – | –
